Data: the Bradley open melting point set (2014)

melting point [°C] | Compound
159 | O=C(O)c1cc(I)ccc1Cl [2-chloro-5-iodobenzoic acid]
71 | O=Cc1cc([N+](=O)[O-])ccc1Cl [2-chloro-5-nitrobenzaldehyde]
166 | O=C(O)c1cc([N+](=O)[O-])ccc1Cl [2-chloro-5-nitrobenzoic acid]
27 | Cc1ccc(F)c(C=O)c1Cl [2-chloro-6-fluoro-3-methylbenzaldehyde]
126 | ON=Cc1c(F)cccc1Cl [2-chloro-6-fluorobenzaldoxime]
2 | Cc1cccc(Cl)c1N [2-chloro-6-methylaniline]
65 | Nc1c(Cl)cc(C(F)(F)F)cc1[N+](=O)[O-] [2-chloro-6-nitro-4-(trifluoromethyl)aniline]
10 | O=Cc1ccccc1Cl [2-chlorobenzaldehyde]
32 | Clc1nc2ccccc2s1 [2-chlorobenzothiazole]
-6 | FC(F)(F)c1ccccc1Cl [2-chlorobenzotrifluoride]
83 | O=C(O)C(O)c1ccccc1Cl (stereo unspecified) [2-chloromandelic acid]
150 | O=C(O)COc1ccccc1Cl [2-chlorophenoxyacetic acid]
94 | N#Cc1ccccc1O [2-cyanophenol]
-53 | O=C1C=CCCC1 [2-cyclohexen-1-one]
3 | CCCCCCCCC(C)=O [2-decanone]
191 | O=C(O)c1c(P(c2ccccc2)c2ccccc2)ccc2ccccc12 [2-diphenylphosphino-1-naphthoic acid]
21 | CCCCCCCCCCC(C)=O [2-dodecanone]
29 | CCOc1cc(C)ccc1O [2-ethoxy-4-methylphenol]
100 | CCOc1ccccc1B(O)O [2-ethoxybenzeneboronic acid]
169 | CCC1C(=O)CCC1=O [2-ethyl-1,3-cyclopentanedione]
-132 | C=C(CC)CC [2-ethyl-1-butene]
-76 | CCCCC(CC)CO (stereo unspecified) [2-ethyl-1-hexanol]
44 | CCC(C)(CO)CO [2-ethyl-2-methyl-1,3-propanediol]
-15 | CCC(CC)C(=O)O [2-ethylbutyric acid]
-59 | CCCCC(CC)C(=O)O (stereo unspecified) [2-ethylhexanoic acid]

melting point [°C] | Compound
-76 | CCCCC(CC)CN (stereo unspecified) [2-ethylhexylamine]
157 | CC(=O)Nc1ccc(Cl)cc1F [2-fluoro-4-chloroacetanilide]
156 | N#Cc1c(O)cccc1F [2-fluoro-6-hydroxybenzonitrile]
93 | O=[N+]([O-])c1cccc(F)c1O [2-fluoro-6-nitrophenol]
113 | CC(C(=O)O)c1ccc(-c2ccccc2)c(F)c1 (stereo not drawn) [2-fluoro-alpha-methyl-4-biphenylacetic acid]
246 | OB(O)c1ccc(-c2ccccc2)c(F)c1 [2-fluorobiphenyl-4-boronic acid]
172 | OB(O)c1cccnc1F [2-fluoropyridine-3-boronic acid]
79 | N#CCC(=O)c1ccco1 [2-furoylacetonitrile]
-35 | CCCCCC(C)=O [2-heptanone]
-56 | CCCCC(C)=O [2-hexanone]
41 | COc1cccc(C=O)c1O [2-hydroxy-3-methoxybenzaldehyde]
152 | COc1cccc(C(=O)O)c1O [2-hydroxy-3-methoxybenzoic acid]
-90 | CC(C)I [2-iodopropane]
86 | CC(C)c1ccccc1B(O)O [2-isopropylbenzeneboronic acid]
192 | Sc1nc2ccccc2o1 [2-mercaptobenzoxazole]
37 | COc1ccc(C)cc1O [2-methoxy-5-methylphenol]
165 | CNC1=CC2=NC(OC)=CC2=CC1 [2-methoxy-N-methyl-1H-indol-6-amine]
101 | COc1ccccc1C(=O)O [2-methoxybenzoic acid]
30 | COc1ccccc1O [2-methoxyphenol]
-137 | C=C(C)CC [2-methyl-1-butene]
70 | CC1=C(C#N)c2ccccc2C1 [2-methyl-1H-indene-3-carbonitrile]
100 | CC1=NCCN1 [2-methyl-2-imidazoline]
55 | CCCC(C)(CO)CO [2-methyl-2-propyl-1,3-propanediol]
35 | Cc1ccccc1CO [2-methylbenzyl alcohol]
39 | Cc1ccccc1CO [2-methylbenzyl_alcohol]

Continued, compound first:

Compound | melting point [°C]
CC(=O)Nc1ccccc1O [2-acetamidophenol] | 208
CC(=O)c1sc(-c2ccccc2)cc1N [2-acetyl-3-amino-5-phenylthiophene] | 121
CC(=O)c1sccc1N [2-acetyl-3-aminothiophene] | 86
CC(=O)c1ccccc1C(=O)O [2-acetylbenzoic_acid] | 116
CC(=O)c1ccccn1 [2-acetylpyridine] | 9
CC(C)(N)CO [2-amino-2-methyl-1-propanol] | 26
Nc1ncc(Br)cc1Br [2-amino-3,5-dibromopyridine] | 104
Nc1c(C(=O)O)cccc1C(F)(F)F [2-amino-3-(trifluoromethyl)benzoic acid] | 155
Nc1cc([N+](=O)[O-])ccc1O [2-amino-4-nitrophenol] [listing 1 of 2 here] | 144
Nc1cc([N+](=O)[O-])ccc1O [2-amino-4-nitrophenol] [listing 2 of 2 here] | 143
Cc1cc(Br)cnc1N [2-amino-5-bromo-3-methylpyridine] | 92
Nc1ncc(Br)cn1 [2-amino-5-bromopyrimidine] | 233
Nc1nnc(C2CC2)s1 [2-amino-5-cyclopropyl-1,3,4-thiadiazole] | 214
Nc1ccc(I)cn1 [2-amino-5-iodopyridine] | 128
Nc1ccccc1CO [2-aminobenzyl alcohol] | 83
Oc1ccc(OCc2ccccc2)nc1 [2-benzyloxy-5-hydroxypyridine] | 92
O=C(O)Cc1ccccc1OCc1ccccc1 [2-benzyloxyphenylacetic acid] | 97
OCc1ccccc1-c1ccccc1 [2-biphenylmethanol] | 49
O=C1c2ccccc2CC1Br (stereo unspecified) [2-bromo-1-indanone] | 38

Compound | melting point [°C]
CC(C)(F)C(Br)C(=O)O (stereo unspecified) [2-bromo-3-fluoroisovaleric acid] | 54
Cc1ccc(O)c(Br)c1 [2-bromo-4-methylphenol] | 16
O=[N+]([O-])c1cc[n+]([O-])c(Br)c1 [2-bromo-4-nitropyridine n-oxide] | 145
O=C(O)c1cc(Cl)ccc1Br [2-bromo-5-chlorobenzoic acid] | 154
Cc1ccc(C)c(Br)c1 [2-bromo-p-xylene] | 10
CC=C(C)Br [2-bromo-trans-2-butene] | -115
COc1ccccc1Br [2-bromoanisole] | 3
NC(=O)c1ccccc1Br [2-bromobenzamide] | 161
OB(O)c1ccccc1Br [2-bromobenzeneboronic acid] | 109
N#Cc1ccccc1Br [2-bromobenzonitrile] | 55
CCCC(C)Br (stereo unspecified) [2-bromopentane] | -96
Oc1ccccc1Br [2-bromophenol] [listing 1 of 2 here] | 5.6
Oc1ccccc1Br [2-bromophenol] [listing 2 of 2 here] | 5
N#CCOc1ccccc1Br [2-bromophenoxyacetonitrile] | 49
C=C(C)Br [2-bromopropene] | -87
O=C(O)c1ccc(C(=O)O)c(Br)c1 [2-bromoterephthalic acid] | 299
CCC(C)=O [2-butanone] | -86
CC#CC [2-butyne] | -32
O=S(=O)(Nc1ccccc1Cl)c1ccccc1 [2-chloro-1-phenylsulfonamidobenzene] | 125

Compound | melting point [°C]
CCc1cccc(CC)c1NC(=O)CCl [2-chloro-2',6'-diethylacetanilide] | 130
CCC(C)(C)Cl [2-chloro-2-methylbutane] | -73
O=C(CCl)c1ccc(O)c(O)c1 [2-chloro-3',4'-dihydroxyacetophenone] | 174
COc1ccc(/C=C/C(=O)O)c(Cl)c1OC [2-chloro-3,4-dimethoxycinnamic acid] | 195
N#CCc1cccc(C(F)(F)F)c1Cl [2-chloro-3-(trifluoromethyl)phenylacetonitrile] | 58
O=[N+]([O-])c1cc[n+]([O-])c(Cl)c1F [2-chloro-3-fluoro-4-nitropyridine n-oxide] | 177
O=C(O)c1cccc([N+](=O)[O-])c1Cl [2-chloro-3-nitrobenzoic acid] | 184
O=[N+]([O-])c1ccc(-c2ccc([N+](=O)[O-])cc2Cl)cc1 [2-chloro-4,4'-dinitrobiphenyl] | 145
Cc1ccc(B(O)O)c(Cl)c1 [2-chloro-4-methylbenzeneboronic acid] | 200
N#Cc1cc(C(F)(F)F)ccc1Cl [2-chloro-5-(trifluoromethyl)benzonitrile] | 39
N#Cc1ccccc1Cl [2-chlorobenzonitrile] | 45
Clc1ccccc1C(Cl)(Cl)Cl [2-chlorobenzotrichloride] | 30
Oc1ccc(O)c(Cl)c1 [2-chlorohydroquinone] | 102
CCOCCOC(C)=O [2-ethoxyethyl_acetate] | -61
O=C(Cl)c1ccco1 [2-furoyl chloride] | -1
S=C=Nc1ccccc1I [2-iodophenyl isothiocyanate] | 38
Cc1ccccc1CCl [2-methylbenzyl chloride] | 2
Cc1ccccc1CP(=O)(O)O [2-methylbenzylphosphonic acid] | 186
